Calls of active or inactive are those of the source. The rule behind the calls is not given here.
Assay: H9c2 cardiomyoblast viability modulators under 2-DG – cell-based, ATPlite luminescence, rat, set 2, myocardial damage modulator project, dose response (AID 602210)
Settings: H9c2 rat cardiomyoblasts, 2-deoxyglucose-induced death, 2 h

| Compound | IC50 |
| --- | --- |
| Cc1nc(N2CCN(c3ccccn3)CC2)c2c(C)c(C(=O)Nc3ccccc3F)sc2n1 | 16.4 µM (inactive) |
| CC(C)(C)OC(=O)N1CCC[C@H]1c1nnc(SCC(=O)Nc2ccc(Br)cc2)o1 | 19.8 µM (inactive) |
| COc1cc(-c2cc(C(=O)Nc3cccc(C(C)=O)c3)c3ccccc3n2)cc(OC)c1OC | 9.8 µM |
| COCCn1cnc2c(c1=O)c1nc3ccccc3nc1n2/N=C/c1cccc(OC)c1 | > 79 µM (inactive) |
| Cc1nn(-c2ccccc2)c(N2CCCC2)c1/C=N/NC(=O)c1cc(-c2ccccn2)nc2ccccc12 | 12.6 µM (inactive) |
| Cn1c(C(=O)NCCc2ccsc2)cc2c(=O)n(C)c3ccccc3c21 | 11.3 µM (inactive) |
| Cc1cccc(NC(=O)c2oc3ccc(S(=O)(=O)N4CCOCC4)cc3c2C)c1C | 11 µM (inactive) |
| Cc1cc(C)cc(OCC(=O)Nc2cccc(-c3nc4ncccc4o3)c2)c1 | 14.3 µM (inactive) |
| COc1ccc(-c2cc(-c3nnc(COC(=O)C4CC4C)o3)c3ccccc3n2)cc1OC (centres undefined) | 10.3 µM (inactive) |
| COCCN1Cc2cccc(C(=O)Nc3cccc(-c4nc5ccccc5[nH]4)c3)c2C1=O | 3.71 µM |
| CCN(CC)C(=O)c1ccc2c3c(cccc13)C(=O)N(CCc1ccc(OC)c(OC)c1)C2=O | 25 µM (inactive) |
| CC(=O)c1cccc(Nc2nc3ccccc3n3cnnc23)c1 | 8.67 µM |
| COc1ccc(Nc2nnc(-c3ccc(O)cc3)c3ccccc23)cc1C(N)=O | > 79 µM (inactive) |
| Cc1nnc2ccc(-c3cccc(NC(=O)c4ccc(Cl)nc4)c3)nn12 | 45.9 µM (inactive) |
| COc1ccc(CCNC(=O)C(=O)NCC2CCCN2S(=O)(=O)c2ccccc2)cc1OC (centres undefined) | 15.4 µM (inactive) |
| O=C(Nc1cccc(Cl)c1)c1nc[nH]c1C(=O)NCCCNC(=O)c1[nH]cnc1C(=O)Nc1cccc(Cl)c1 | > 79 µM (inactive) |
| CC(=O)Nc1ccc(C(=O)N/N=C/c2ccccc2OC(=O)c2ccc(Cl)cc2)cc1 | 14.7 µM (inactive) |
| COCCNC(=O)COC(=O)c1ccc(OCC(=O)Nc2ccccc2OC)c(OC)c1 | 22 µM (inactive) |
| C[C@H](CO)N1C[C@H](C)[C@@H](CN(C)C(=O)Nc2ccc3c(c2)OCO3)Oc2c(NC(=O)Nc3ccc(C(F)(F)F)cc3)cccc2C1=O | > 79 µM (inactive) |
| O=C(COC(=O)c1c2c(nc3ccccc13)/C(=C/c1cccc([N+](=O)[O-])c1)CCC2)NC1CCS(=O)(=O)C1 (centres undefined) | 12.9 µM (inactive) |
| CCN(CC)S(=O)(=O)c1ccc(N2CCOCC2)c(NC(=O)c2cc(-c3ccccn3)nc3ccccc23)c1 | 4.51 µM |
| COCCn1nnnc1CN(CCc1ccccc1)Cc1cc2cc(OC)ccc2[nH]c1=O | > 79 µM (inactive) |
| NS(=O)(=O)c1ccc(CCNc2ccn3nc(-c4ccc(OCCN5CCOCC5)cc4)cc3n2)cc1 | 45.8 µM (inactive) |

| Compound | IC50 |
| --- | --- |
| COc1cc(/C=N\NC(=O)c2cccnc2)ccc1OC(=O)c1ccccc1Cl | > 79 µM (inactive) |
| CC(=O)Nc1cccc(-c2cc(NC=O)c3ncc(-c4cccc(C(C)=O)c4)n3c2)c1 | 11 µM (inactive) |
| COc1ccc(OC)c(/C=N/Nc2nncn2/N=C/c2cc(OC)ccc2OC)c1 | > 79 µM (inactive) |
| CCOC(=O)C1=C(C)Nc2ccccc2N=C1NC(=O)c1oc2ccccc2c1COC | 6.98 µM |
| CCCCNC(=O)c1cn(-c2ccc(OCC)cc2)c(=O)c2cc(OC)c(OC)cc12 | 39.2 µM (inactive) |
| COC(=O)c1cc(C(=O)OCC(=O)N2c3ccccc3NC(=O)C2(C)C)cc([N+](=O)[O-])c1 | 47.6 µM (inactive) |
| COc1cc2nc(Nc3ccc(F)cc3)nc(N)c2cc1OC | > 79 µM (inactive) |
| O=C(O)c1ccc2c(c1)S(=O)(=O)c1cc(N3CCN(c4cnccn4)CC3)ccc1C2=O | 18.6 µM (inactive) |
| CNC(=O)c1ccc(-c2sc3nc(N4CCOCC4)c4c(c3c2N)CC(C)(C)OC4)o1 | 21.3 µM (inactive) |
| CC(=O)Nc1ccc(-c2csc(NC(=O)Nc3ccccc3)n2)cc1 | 1.94 µM |
| COc1cc2c(cc1OC)CN(c1nc(-c3cccnc3)nc3ccccc13)CC2 | 6.71 µM |
| Cc1cccc(NC(=O)c2nc[nH]c2C(=O)NCCCCNC(=O)c2[nH]cnc2C(=O)Nc2cccc(C)c2)c1 | 3.32 µM |
| COc1ccc(C(=O)Nc2cccc(/C(C)=N/NC(=O)c3ccc([N+](=O)[O-])c(C)c3)c2)cc1OC | 18.7 µM (inactive) |
| COc1ccc(C(=O)O/N=C(/c2ccccc2)c2ccncc2)cc1OC | 15.9 µM (inactive) |
| CCOC(=O)N1CCC(n2c(SCC(=O)N3CCC(C)CC3)nc3ccccc3c2=O)CC1 | 31.6 µM (inactive) |
| COc1cc(-c2cc(C(=O)NCc3ccco3)c3ccccc3n2)cc(OC)c1OC | 16.4 µM (inactive) |
| CCOc1ccc(-n2cc(-c3ccccc3)c3c(N4CCOCC4)ncnc32)cc1 | 10.3 µM (inactive) |
| Cc1ccccc1C(C(=O)NCc1ccccc1)N(Cc1ccco1)C(=O)c1ccccn1 (centres undefined) | 45.6 µM (inactive) |
| O=C(Nc1cc(S(=O)(=O)N2CCOCC2)ccc1N1CCCCC1)c1cc(-c2ccccn2)nc2ccccc12 | 14.6 µM (inactive) |
| CC/C(C)=N\N=C\c1c(O)n(CC)c2cc(C3=NNC(=O)CC3)ccc12 | > 79 µM (inactive) |
| O=C(CSc1nnc(Cc2cccs2)n1CCc1ccccc1)N1CCCc2ccccc21 | 13.9 µM (inactive) |
| C[C@H](NC(=O)c1nc[nH]c1C(=O)NCC(=O)OCc1ccccc1)C(=O)OCc1ccccc1 | 2.8 µM |
| Cc1ccc2cc3c(NC(=O)c4cccnc4)nn(C)c3nc2c1 | 18.5 µM (inactive) |

| Compound | IC50 |
| --- | --- |
| O=C(c1cc(=O)[nH]c2ccccc12)N1CCN(S(=O)(=O)c2ccc3ccccc3c2)CC1 | 17.4 µM (inactive) |
| CC(=O)NCCNc1nc2c(-c3ccccc3)nnn2c2ccccc12 | 13.2 µM (inactive) |
| C=CCOC(=O)C1=C[C@H](c2cn(C(C)=O)c3ccccc23)C[C@H](OCc2ccc(CO)cc2)O1 | 21.5 µM (inactive) |
| COC(=O)c1ccccc1NC(=O)c1ccc2nccnc2c1 | 48.8 µM (inactive) |
| OC1CCN(c2c3c(nc4cc(-c5cccc(F)c5)nn24)CCCC3)CC1 | 23.8 µM (inactive) |
| COc1cc(/C=C(\C#N)c2nc3ccc(C)cc3[nH]2)c([N+](=O)[O-])cc1OC | 26.4 µM (inactive) |
| CCOC(=O)c1cc2c(=O)n3cccc(C)c3nc2n(CCCOC)c1=NC(=O)c1cccnc1 | 11.3 µM (inactive) |
| COc1cccc(-c2cnc3c(NC=O)cc(-c4cccc(NC(C)=O)c4)cn23)c1 | 6.84 µM |
| CCCn1nc(C(=O)Nc2nc(-c3ccccn3)cs2)c2ccccc2c1=O | 9.03 µM |
| COc1ccc(-c2cc(C(=O)N(C)Cc3ccccc3F)c3ccccc3n2)cc1OC | 13.5 µM (inactive) |
| COc1ccccc1NC(=O)CSc1ccc2nnc(-c3ccc(C)cc3)n2n1 | > 79 µM (inactive) |
| O=C(NC1CCCCC1)C(c1ccc2ncccc2c1)N(Cc1ccco1)C(=O)c1ccc2c(c1)OCCO2 (centres undefined) | 42.5 µM (inactive) |
| COc1ccc(/C=C/C(=O)c2ccccc2O)cc1CN1CCOCC1 | 25.7 µM (inactive) |
| Clc1ccccc1-c1nc(N/N=C/c2cccnc2)c2ccccc2n1 | 18.6 µM (inactive) |
| COc1ccccc1CN(C)C(=O)c1cc(-c2cc(OC)c(OC)c(OC)c2)nc2ccccc12 | 10.4 µM (inactive) |
| COc1cc(-c2cc(NC=O)c3ncc(-c4ccc(C(C)=O)cc4)n3c2)cc(OC)c1OC | 6.7 µM |
| CCOC(=O)N1CCN(C(=O)CSc2nc3c(cnn3-c3ccc(C)cc3)c(=O)[nH]2)CC1 | > 79 µM (inactive) |
| c1ccc(N2CCOCC2)c(Nc2nc3ccccc3n3cnnc23)c1 | 33.1 µM (inactive) |
| Cc1ccc(C(C(=O)NCc2ccccc2)N(Cc2ccco2)C(=O)c2snc(C(N)=O)c2N)o1 (centres undefined) | 8.59 µM |
| CCOc1ccc(CCNC(=O)c2cc3c(C)nccc3[nH]c2=O)cc1OCC | 8.64 µM |
| O=c1c2ccccc2nc2c3ccccc3c(NCCO)nn12 | 70.6 µM (inactive) |
| COc1ccc(-c2cc3nc(-c4ccccc4)cc(N4CCN(C(C)=O)CC4)n3n2)cc1 | 16.1 µM (inactive) |
| O=C(CN1C(=O)C2C3C=CC(C3)C2C1=O)Nc1nc(-c2ccccn2)cs1 (centres undefined) | 24.7 µM (inactive) |

| Compound | IC50 |
| --- | --- |
| O=C(N/N=C/c1ccncc1)c1ccc(COc2cccc3cccnc23)cc1 | > 79 µM (inactive) |
| COc1ccccc1NC(=O)COc1ccc(/C=N/NC(=O)c2cccnc2)cc1 | 21.1 µM (inactive) |
| COc1ccc(C(C(=O)NC2CCCC2)N(C(=O)c2snc(C(N)=O)c2N)c2cccc(O)c2)cc1 (centres undefined) | 13.3 µM (inactive) |
| NS(=O)(=O)c1ccc(CCNC(=O)c2ccc(C#CC3(O)CCCCC3)cc2)cc1 | 4.94 µM |
| COc1cccc(/C=N/NC(=O)c2ccncc2)c1OC(=O)c1ccc(Br)cc1 | 28.3 µM (inactive) |
| CCOC(=O)c1cnc(Nc2nc3ccccc3o2)nc1CSc1nnc(C)s1 | 27.3 µM (inactive) |
| O=C(N/N=C/c1ccccn1)c1cc(-c2cccc3ccccc23)n[nH]1 | 20.7 µM (inactive) |
| COc1ccc(C(=O)Nc2cc(C)nn2-c2nc3ccccc3[nH]2)c(OC)c1 | 16.1 µM (inactive) |
| C[C@@H]1ON(C)[C@H]2C[C@H]3c4[nH]c5ccc(-c6ccc7c(c6)OCO7)cc5c4CCN3C[C@@H]12 | > 79 µM (inactive) |
| CC(C)(C)C(=O)Nc1ccc(C(=O)N/N=C/c2ccccc2OC(=O)c2ccccc2)cc1 | > 79 µM (inactive) |
| COc1cc(NC(=O)c2cccc3c(-c4cnn(C)c4)coc23)cc(OC)c1OC | > 79 µM (inactive) |
| COC(=O)c1cc2ccc(OC)cc2c2cc(OC)c(OC)cc12 | > 79 µM (inactive) |
| CC(=O)Nc1cc(C)nn1-c1nc2ccccc2s1 | > 79 µM (inactive) |
| CC(=O)Nc1ccc(Nc2nc(-c3sc(NC(C)=O)nc3C)cs2)cc1 | 18.8 µM (inactive) |
| CCCc1cc(N2CCN(C(=O)c3ccco3)CC2)n2c(nc3ccccc32)c1C#N | 26.3 µM (inactive) |
| COc1ccc(N(Cc2cc3cc(OC)ccc3[nH]c2=O)C(=O)c2cccnc2)cc1 | > 79 µM (inactive) |
| CCN(CC)C(=O)c1[nH]cnc1C(=O)NCC(=O)OCc1ccccc1 | 8.7 µM |
| O=C(NCCc1ccccc1Cl)c1ccc2nc3ccccc3c(=O)n2c1 | 28.7 µM (inactive) |
| O=C(NCc1ccco1)C(c1ccccc1)N(C(=O)Cc1cccs1)c1ccccc1F (centres undefined) | 22.9 µM (inactive) |
| CCN(C[C@H]1N[C@@](CC)(C(=O)OC)[C@H]2C(=O)N(Cc3ccccc3)C(=O)[C@@H]12)C(=O)c1ccc(C(C)(C)C)cc1 | 3.95 µM |

From PubChem BioAssay AID602210 (Sanford-Burnham Center for Chemical Genomics, 2012)
